The target in one data set is T1, human D2 receptor (Homo sapiens, UniProt P14416).
T1 construct: expressed in transfected cells; host or cells: HEK293 EBNA cells, transient transfection; membrane preparation
The data set can be described thus: Radioligand binding to cloned human D2 receptor expressed in HEK-293 EBNA cells ([3H]-spiperone). The note with it: HEK293 EBNA cell membranes, approximately 0.7 nM [3H]-spiperone, 1 h at RT.

A further data set concerns the target human D3 receptor (Homo sapiens, UniProt P35462). The data set can be described thus: Radioligand binding to cloned human D3 receptor expressed in HEK-293 EBNA cells ([3H]-spiperone).
In the next data set the target is human 5-HT2A receptor (Homo sapiens, UniProt P28223). Nature of the data set: Radioligand binding to cloned human 5-HT2A receptor expressed in HEK-293 EBNA cells ([3H]-ketanserin).
human 5-HT2A receptor, sequence (P28223 whole entry): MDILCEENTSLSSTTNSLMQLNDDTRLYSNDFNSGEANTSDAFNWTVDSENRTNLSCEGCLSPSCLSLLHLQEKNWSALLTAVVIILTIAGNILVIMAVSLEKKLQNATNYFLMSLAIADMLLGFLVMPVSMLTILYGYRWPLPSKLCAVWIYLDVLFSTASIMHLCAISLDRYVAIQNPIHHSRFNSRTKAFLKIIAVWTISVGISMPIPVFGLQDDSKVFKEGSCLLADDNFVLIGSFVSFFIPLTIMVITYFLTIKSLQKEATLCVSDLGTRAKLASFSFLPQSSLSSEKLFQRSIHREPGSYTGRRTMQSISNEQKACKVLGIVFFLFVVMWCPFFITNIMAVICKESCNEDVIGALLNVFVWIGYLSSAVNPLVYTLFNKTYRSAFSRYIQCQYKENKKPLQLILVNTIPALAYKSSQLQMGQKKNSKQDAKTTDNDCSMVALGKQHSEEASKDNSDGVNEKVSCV

human D3 receptor, sequence (P35462 whole entry): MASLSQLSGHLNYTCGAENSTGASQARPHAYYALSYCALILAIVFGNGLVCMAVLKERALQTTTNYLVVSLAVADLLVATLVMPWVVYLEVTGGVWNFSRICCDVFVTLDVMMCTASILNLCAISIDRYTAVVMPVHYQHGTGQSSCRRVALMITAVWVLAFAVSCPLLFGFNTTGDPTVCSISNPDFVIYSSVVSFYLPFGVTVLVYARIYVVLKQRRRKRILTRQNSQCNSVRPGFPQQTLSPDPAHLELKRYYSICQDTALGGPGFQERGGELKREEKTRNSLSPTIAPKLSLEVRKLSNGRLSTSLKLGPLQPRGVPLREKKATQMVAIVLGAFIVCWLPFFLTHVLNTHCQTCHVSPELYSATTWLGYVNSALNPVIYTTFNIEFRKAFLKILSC
T1 sequence (P14416 whole entry): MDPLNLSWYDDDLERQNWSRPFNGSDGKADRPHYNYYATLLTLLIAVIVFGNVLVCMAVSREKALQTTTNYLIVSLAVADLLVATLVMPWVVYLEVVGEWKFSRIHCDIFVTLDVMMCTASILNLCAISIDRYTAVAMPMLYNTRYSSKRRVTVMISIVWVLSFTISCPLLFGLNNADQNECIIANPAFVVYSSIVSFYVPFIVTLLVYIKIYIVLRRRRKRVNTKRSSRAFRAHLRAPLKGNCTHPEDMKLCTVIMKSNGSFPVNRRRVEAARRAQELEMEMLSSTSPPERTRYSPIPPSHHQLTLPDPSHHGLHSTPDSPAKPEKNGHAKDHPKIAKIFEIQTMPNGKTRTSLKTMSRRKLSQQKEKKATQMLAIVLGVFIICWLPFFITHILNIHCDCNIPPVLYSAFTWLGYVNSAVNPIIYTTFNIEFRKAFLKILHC
Procedure for human 5-HT2A receptor: (§1) HEK293 EBNA cells were transiently transfected with expression plasmids encoding for the human D2 or D3 or for the human 5-HT2A receptor, respectively. The cells were harvested 48 h post-transfection, washed three times with cold PBS and stored at −80° C. prior to use. The pellet was suspended in cold 50 mM Tris-HCl buffer comprising 10 mM EDTA (pH 7.4) and was homogenized with a Polytron (Kinematica A G, Basel, Switzerland) for 20-30 sec at 12.000 rpm. After centrifugation at 48.000×g for 30 min at 4° C., the pellet was resuspended in cold 10 mM Tris-HCl buffer comprising 0.1 mM EDTA (pH 7.4), homogenized, and centrifuged as above. This pellet was further resuspended in a smaller volume of ice cold 10 mM Tris-HCl buffer comprising 0.1 mM EDTA (pH 7.4) and homogenized with a Polytron for 20-30 sec at 12.000 rpm. The protein content of this homogenate was determined with the Bio-Rad (Bradford) Protein Assay (Biorad Laboratories GmbH, München, Germany) according to the instructions of the manufacturer using gamma globulin as the standard. This homogenate was stored at −80° C. in aliquots and thawed immediately prior to use.
(§2) Aliquots of membrane preparations were thawed at RT, resupended in assay buffer (D2, D3: 50 mM Tris-HCl, 120 mM NaCl, 5 mM MgCl2, 1 mM EDTA, 5 mM KCl, 1.5 mM CaCl2, pH=7.4; 5-HT2A: 50 mM Tris-HCl, 10 mM MgCl2, 1 mM EGTA, pH=7.4), homogenized with a Polytron for 20-30 sec at 12.000 rpm and adjusted to a final concentration of approximately 7.5 μg protein/well (D2, D3) and 15 μg protein/well (5-HT2A), respectively.
(§3) The binding affinity (Ki) of the compounds was determined using radioligand binding. Membranes were incubated in a total volume of 200 μl with a fixed concentration of radioligand (final concentration approximately 0.7 nM [^3H]-spiperone for D2, 0.5 nM [^3H]-spiperone for D3, and 1.1 nM [^3H]-ketanserin for 5-HT2A) and ten concentrations of test compound in ranging between 10 μM-0.1 nM for 1 h at RT. At the end of the incubation, the reaction mixtures were filtered on to unifilter 96-well white microplates with bonded GF/C filters (Packard BioScience, Zürich, Switzerland; preincubated for 1 h in 0.1% polyethylenimine (PEI) in assay buffer) with a Filtermate 196 harvester (Packard BioScience) and washed 3 times with cold assay buffer. The nonspecific binding was determined with equally composed reaction mixtures in the presence of 10 μM unlabelled spiperone. Per well 45 μl of Microscint 40 (Perkin Elmer, Schwerzenbach, Switzerland) was added, plates for sealed, shaken for 20 min and counted for 3 min on a Topcount Microplate Scintillation Counter (Can berra Packard S A, Zürich, Switzerland) with quenching correction.
(§4) The CPM value for each duplicate of a concentration of competing compound was averaged (y1), then the % specific binding was calculated according to the equation (((y1−non-specific)/(total binding−non-specific))×100). Graphs were plotted with the % specific binding using XLfit, a curve fitting program that iteratively plots the data using Levenberg-Marquardt algorithm. The single site competition analysis equation used was y=A+((B−A)/(1+((x/C)D))), where y is the % specific binding, A is the minimum y, B is the maximum y, C is the IC50, x is the log 10 of the concentration of the competing compound and D is the slope of the curve (the Hill Coefficient). […] The affinity constant (Ki) was calculated using the Cheng-Prusoff equation Ki=(IC50/1+([L]/Kd), where [L] is the concentration of radioligand and Kd is the dissociation constant of the radioligand at the receptor as determined by the saturation isotherm.
Procedure for human D2 receptor: as §1, §2, §3, §4

On to `CS(=O)(=O)CC(=O)N[C@H]1CC[C@H](CCN2CCN(c3nccc4ccoc34)CC2)CC1` [Example 17, trans-N-{4-[2-(4-Furo[2,3-c]pyridin-7-yl-piperazin-1-yl)-ethyl]-cyclohexyl}-2-methanesulfonyl-acetamide], for which the melting point is 182 °C. The molecule also showed a Ki at human D2 receptor of 576 nM. Also, the Ki at human D3 receptor was 4.26 nM. This molecule also had a Ki on human 5-HT2A receptor of 10.9 nM.
As to `CCC(=O)N[C@H]1CC[C@H](CCN2CCN(c3nccc4c3OCC4)CC2)CC1` [Example 18, trans-N-(4-{2-[4-(2,3-Dihydro-furo[2,3-c]pyridin-7-yl)-piperazin-1-yl]-ethyl}-cyclohexyl)-propionamide], the melting point worked out at 196 °C. At human D2 receptor, this molecule registered a Ki of 648 nM. For the same molecule, the Ki at human D3 receptor was determined as 3.94 nM. Further, the affinity at human 5-HT2A receptor, expressed as Ki, was 43.3 nM.
With `O=C(CC1COCCO1)N[C@H]1CC[C@H](CCN2CCN(c3nccc4c3OCC4)CC2)CC1` (stereo partly drawn) [Example 19, trans-N-(4-{2-[4-(2,3-Dihydro-furo[2,3-c]pyridin-7-yl)-piperazin-1-yl]-ethyl}-cyclohexyl)-2-[1,4]dioxan-2-yl-acetamide], the melting point is 194.5 °C. This molecule also gave a Ki on human D2 receptor of 1220 nM. On human D3 receptor, this molecule registered a Ki of 8.9 nM. On human 5-HT2A receptor, this molecule showed a Ki of 29.7 nM.
For `COCC(=O)N[C@H]1CC[C@H](CCN2CCN(c3nccc4c3OCC4)CC2)CC1` [Example 20, trans-N-(4-{2-[4-(2,3-Dihydro-furo[2,3-c]pyridin-7-yl)-piperazin-1-yl]-ethyl}-cyclohexyl)-2-methoxy-acetamide], in that order: 126.5 °C, 1280 nM, 12.8 nM and 32.9 nM.
Molecule `CS(=O)(=O)CC(=O)N[C@H]1CC[C@H](CCN2CCN(c3nccc4c3OCC4)CC2)CC1` [Example 21, trans-N-(4-{2-[4-(2,3-Dihydro-furo[2,3-c]pyridin-7-yl)-piperazin-1-yl]-ethyl}-cyclohexyl)-2-methanesulfonyl-acetamide] came in with a melting point of 187 °C. The Ki on human D2 receptor is 680 nM. Moreover, the Ki at human D3 receptor stood at 4.36 nM. The Ki on human 5-HT2A receptor is 52.1 nM.
`O=C(N[C@H]1CC[C@H](CCN2CCN(c3nccc4c3OCC4)CC2)CC1)c1ccccc1` [Example 22, trans-N-(4-{2-[4-(2,3-Dihydro-furo[2,3-c]pyridin-7-yl)-piperazin-1-yl]-ethyl}-cyclohexyl)-benzamide] returned a melting point of 221 °C. At human D2 receptor, the inhibition constant (Ki) turned out to be 247 nM. The molecule further gave a Ki on human D3 receptor of 3.34 nM. This molecule also came in with a Ki on human 5-HT2A receptor of 14.7 nM.
For `O=C(N[C@H]1CC[C@H](CCN2CCN(c3nccc4c3OCC4)CC2)CC1)C1CCC1` [Example 23, Cyclobutanecarboxylic acid trans-(4-{2-[4-(2,3-dihydro-furo[2,3-c]pyridin-7-yl)-piperazin-1-yl]-ethyl}-cyclohexyl)-amide], in that order: 186 °C, 276 nM, 5.89 nM and 30.3 nM.
As for `CC(C)CC(=O)N[C@H]1CC[C@H](CCN2CCN(c3nccc4c3OCC4)CC2)CC1` [Example 24, trans-N-(4-{2-[4-(2,3-Dihydro-furo[2,3-c]pyridin-7-yl)-piperazin-1-yl]-ethyl}-cyclohexyl)-3-methyl-butyramide], the melting point came to 187 °C. This molecule also displayed an inhibition constant (Ki) at human D2 receptor of 350 nM. The Ki at human D3 receptor turned out to be 3.19 nM. At human 5-HT2A receptor, this molecule came in with a Ki of 44.9 nM.
`O=C(CC1CCC1)N[C@H]1CC[C@H](CCN2CCN(c3nccc4c3OCC4)CC2)CC1` [Example 25, trans-2-Cyclobutyl-N-(4-{2-[4-(2,3-dihydro-furo[2,3-c]pyridin-7-yl)-piperazin-1-yl]-ethyl}-cyclohexyl)-acetamide] returned a melting point of 147.5 °C. Further, on human D2 receptor, the affinity corresponds to a Ki of 531 nM. Also, the Ki at human D3 receptor was 5.78 nM. The same molecule showed a Ki at human 5-HT2A receptor of 36.9 nM.
For the molecule `CS(=O)(=O)N[C@H]1CC[C@H](CCN2CCN(c3nccc4c3OCC4)CC2)CC1` [Example 26, trans-N-(4-{2-[4-(2,3-Dihydro-furo[2,3-c]pyridin-7-yl)-piperazin-1-yl]-ethyl}-cyclohexyl)-methanesulfonamide], the melting point was found to be 220 °C. The molecule also gave a Ki at human D2 receptor of 481 nM. The molecule further registered a Ki at human D3 receptor of 13.9 nM. At human 5-HT2A receptor, this molecule yielded a Ki of 70.8 nM.
In the same order, the values of `CCS(=O)(=O)N[C@H]1CC[C@H](CCN2CCN(c3nccc4c3OCC4)CC2)CC1` [Example 27, Ethanesulfonic acid trans-(4-{2-[4-(2,3-dihydro-furo[2,3-c]pyridin-7-yl)-piperazin-1-yl]-ethyl}-cyclohexyl)-amide] are 190 °C, 367 nM, 11.3 nM and 60.5 nM.
For `O=C(CO)N[C@H]1CC[C@H](CCN2CCN(c3nccc4c3OCC4)CC2)CC1` [Example 28, trans-N-(4-{2-[4-(2,3-Dihydro-furo[2,3-c]pyridin-7-yl)-piperazin-1-yl]-ethyl}-cyclohexyl)-2-hydroxy-acetamide], in that order: 246 °C, 425 nM, 7.76 nM and 31.3 nM.
For `O=C(CC1CC1)N[C@H]1CC[C@H](CCN2CCN(c3nccc4c3OCC4)CC2)CC1` [Example 30, trans-2-Cyclopropyl-N-(4-{2-[4-(2,3-dihydro-furo[2,3-c]pyridin-7-yl)-piperazin-1-yl]-ethyl}-cyclohexyl)-acetamide], the melting point was found to be 197.5 °C. Further, the affinity on human D2 receptor corresponds to a Ki of 184 nM. In addition, the Ki at human D3 receptor came to 3.34 nM. The same molecule came in with a Ki at human 5-HT2A receptor of 33.3 nM.
In the case of `N#CCC(=O)N[C@H]1CC[C@H](CCN2CCN(c3nccc4c3OCC4)CC2)CC1` [Example 31, trans-2-Cyano-N-(4-{2-[4-(2,3-dihydro-furo[2,3-c]pyridin-7-yl)-piperazin-1-yl]-ethyl}-cyclohexyl)-acetamide], the melting point worked out at 215.5 °C. At human D2 receptor, the Ki is 137 nM. On human D3 receptor, this molecule gave a Ki of 2.19 nM. This molecule registered a Ki at human 5-HT2A receptor of 29.7 nM.
`O=C(C[C@H]1COCCO1)N[C@H]1CC[C@H](CCN2CCN(c3nccc4c3OCC4)CC2)CC1` [Example 32, trans-N-(4-{2-[4-(2,3-Dihydro-furo[2,3-c]pyridin-7-yl)-piperazin-1-yl]-ethyl}-cyclohexyl)-2-(S)[1,4]dioxan-2-yl-acetamide] gave a melting point of 181 °C. The molecule further showed a Ki at human D2 receptor of 822 nM. Further, at human D3 receptor, the inhibitory constant (Ki) was determined as 10.6 nM. The molecule further yielded an inhibition constant (Ki) at human 5-HT2A receptor of 18.9 nM.
In turn, `O=C(CC(F)(F)F)N[C@H]1CC[C@H](CCN2CCN(c3nccc4c3OCC4)CC2)CC1` [Example 33, trans-N-(4-{2-[4-(2,3-Dihydro-furo[2,3-c]pyridin-7-yl)-piperazin-1-yl]-ethyl}-cyclohexyl)-3,3,3-trifluoro-propionamide] displayed a melting point of 216.5 °C. In addition, the Ki at human D2 receptor worked out at 276 nM. Also, the Ki on human D3 receptor was 4.29 nM. Moreover, the affinity at human 5-HT2A receptor, expressed as Ki, was 44.2 nM.
In the case of `O=C(N[C@H]1CC[C@H](CCN2CCN(c3nccc4c3OCC4)CC2)CC1)C1CCOC1` (stereo partly drawn) [Example 34, Tetrahydro-furan-3-carboxylic acid trans-(4-{2-[4-(2,3-dihydro-furo[2,3-c]pyridin-7-yl)-piperazin-1-yl]-ethyl}-cyclohexyl)-amide], the melting point came to 195 °C. Moreover, the Ki at human D2 receptor is 172 nM. Moreover, the Ki on human D3 receptor came out at 7.43 nM. At human 5-HT2A receptor, the affinity, expressed as Ki, was 28 nM.

Usually Ki stands for a dissociation constant, usually derived from enzyme kinetics or from competition with a known ligand. A high value points to lower affinity. For orientation: melting point means the temperature of the solid-liquid transition.
